Data taken from ChEMBL document CHEMBL1201862, “PubChem BioAssay data set” (2004).
Activity calls are given as the source filed them.

Columns and labels:
[1] = tested on: HeLa; assay: HeLa cell cytotoxicity, dose response, cytotoxicity control, 24 h, cherry-picked samples (AID 504726); format: functional, cell-based; conditions: Homo sapiens;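 also: potency for cytotoxicity as loss of luminescence signal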
[2] = target: Eukaryotic translation initiation factor 4E (Mus musculus, UniProt P63073); assay: eIF4E–eIF4G protein interaction inhibitors, dose response, biochemical, TR-FRET (AID 855); format: functional;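 also: potency for disrupting eIF4E binding to eIF4GI seen as loss of FRET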
[3] = target: T1, Small ubiquitin-related modifier 2 (Homo sapiens, UniProt P61956); assay: SUMO2–SIM peptide binding inhibitors, dose response, selectivity assay for SUMO1 interaction inhibitor project, biochemical, fluorescence polarization, uHTS hits (AID 624385); format: functional; conditions: read-out: IC50_Mean
[4] = target: T1, Small ubiquitin-related modifier 2; assay: inhibitors of SUMO2 protein-protein interaction, dose response, selectivity assay for SUMO1 interaction inhibitor project, biochemical, FRET, human SUMO2, uHTS hits (AID 624384); format: functional; conditions: read-out: IC50_Mean
[5] = target: T2, Insulin-degrading enzyme (Homo sapiens, UniProt P14735); assay: activators of endogenous IDE in HEK cells, dose response, cell-based, fluorescence polarization (AID 588439); format: functional
T2 sequence (P14735 whole entry): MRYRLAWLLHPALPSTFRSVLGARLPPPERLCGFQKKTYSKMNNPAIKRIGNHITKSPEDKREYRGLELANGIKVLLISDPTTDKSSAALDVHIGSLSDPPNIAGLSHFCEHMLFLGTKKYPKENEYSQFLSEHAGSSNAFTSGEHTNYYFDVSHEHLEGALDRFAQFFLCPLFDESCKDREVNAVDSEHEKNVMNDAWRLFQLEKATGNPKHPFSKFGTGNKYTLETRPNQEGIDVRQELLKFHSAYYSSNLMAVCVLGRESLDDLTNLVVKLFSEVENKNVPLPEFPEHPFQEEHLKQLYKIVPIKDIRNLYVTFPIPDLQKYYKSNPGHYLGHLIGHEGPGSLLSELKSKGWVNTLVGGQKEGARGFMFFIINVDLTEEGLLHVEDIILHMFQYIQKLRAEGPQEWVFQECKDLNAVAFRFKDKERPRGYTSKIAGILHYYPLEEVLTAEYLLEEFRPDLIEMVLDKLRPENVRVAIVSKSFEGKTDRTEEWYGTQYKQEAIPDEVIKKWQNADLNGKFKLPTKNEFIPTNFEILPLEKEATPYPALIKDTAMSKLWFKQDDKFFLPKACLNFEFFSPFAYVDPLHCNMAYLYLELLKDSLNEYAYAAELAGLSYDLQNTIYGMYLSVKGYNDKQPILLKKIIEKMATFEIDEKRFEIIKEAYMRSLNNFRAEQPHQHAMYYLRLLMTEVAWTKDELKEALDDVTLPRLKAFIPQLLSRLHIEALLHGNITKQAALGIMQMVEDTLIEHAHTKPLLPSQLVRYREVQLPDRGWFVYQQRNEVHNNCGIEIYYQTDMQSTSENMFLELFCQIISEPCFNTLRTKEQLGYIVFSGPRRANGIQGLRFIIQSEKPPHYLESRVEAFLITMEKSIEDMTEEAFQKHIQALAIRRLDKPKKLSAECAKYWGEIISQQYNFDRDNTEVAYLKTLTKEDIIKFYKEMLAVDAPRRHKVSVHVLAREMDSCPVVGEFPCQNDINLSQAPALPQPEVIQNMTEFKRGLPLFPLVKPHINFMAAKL

[6] = target: T3, Small ubiquitin-related modifier 1 (Homo sapiens, UniProt P63165); assay: inhibitors of SUMO1 peptide binding, dose response, biochemical, fluorescence polarization, uHTS hits (AID 624382); format: functional; conditions: read-out: IC50_Mean
[7] = tested on: HEK293; assay: optical interference in Abeta FP readout, dose response, artefact control for IDE activator project, biochemical, fluorescence polarization (AID 588442); format: functional, cell-based; conditions: Homo sapiens
[8] = target: T2, Insulin-degrading enzyme; assay: activators of recombinant IDE enzyme, dose response, counter-screen for IDE activator project, biochemical, fluorescence polarization (AID 588681)
[9] = tested on: HEK293; assay: HEK cell cytotoxicity by LDH release, dose response, cytotoxicity control for IDE activator project, fluorescence, HEK cells (AID 588440); format: functional, cell-based; conditions: Homo sapiens;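 also: cytotoxicity by LDH release measuring loss of membrane integrity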
[10] = target: T4, Caspase-6 (Homo sapiens, UniProt P55212); assay: human caspase-6 inhibitors, dose response, biochemical, VEID-R110 fluorescence, cherry-pick (AID 720632)
T4 sequence (P55212 whole entry): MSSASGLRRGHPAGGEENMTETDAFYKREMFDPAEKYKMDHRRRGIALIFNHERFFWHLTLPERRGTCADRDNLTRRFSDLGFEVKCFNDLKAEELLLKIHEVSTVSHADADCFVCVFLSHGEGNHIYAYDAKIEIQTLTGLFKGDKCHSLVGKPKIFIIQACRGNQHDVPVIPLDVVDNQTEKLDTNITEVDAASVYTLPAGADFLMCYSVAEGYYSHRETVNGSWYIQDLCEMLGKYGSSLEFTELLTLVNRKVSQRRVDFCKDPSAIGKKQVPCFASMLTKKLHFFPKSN

[11] = target: T3, Small ubiquitin-related modifier 1; assay: inhibitors of SUMO1 partner interactions, dose response, biochemical, FRET (AID 624383); format: functional; conditions: read-out: IC50_Mean
[12] = target: T5, ORF 73 (Human herpesvirus 8, UniProt O40947); assay: inhibitors of C-LANA binding to LBS DNA, dose response, biochemical, fluorescence polarization, cherry-picked samples (AID 504725); set-up: species or system Human gammaherpesvirus 8;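 also: fluorescence polarization of a labeled DNA duplex reporting LANA DNA binding; potency is for inhibitors that block LANA binding to the DNA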
T5 sequence (O40947 whole entry): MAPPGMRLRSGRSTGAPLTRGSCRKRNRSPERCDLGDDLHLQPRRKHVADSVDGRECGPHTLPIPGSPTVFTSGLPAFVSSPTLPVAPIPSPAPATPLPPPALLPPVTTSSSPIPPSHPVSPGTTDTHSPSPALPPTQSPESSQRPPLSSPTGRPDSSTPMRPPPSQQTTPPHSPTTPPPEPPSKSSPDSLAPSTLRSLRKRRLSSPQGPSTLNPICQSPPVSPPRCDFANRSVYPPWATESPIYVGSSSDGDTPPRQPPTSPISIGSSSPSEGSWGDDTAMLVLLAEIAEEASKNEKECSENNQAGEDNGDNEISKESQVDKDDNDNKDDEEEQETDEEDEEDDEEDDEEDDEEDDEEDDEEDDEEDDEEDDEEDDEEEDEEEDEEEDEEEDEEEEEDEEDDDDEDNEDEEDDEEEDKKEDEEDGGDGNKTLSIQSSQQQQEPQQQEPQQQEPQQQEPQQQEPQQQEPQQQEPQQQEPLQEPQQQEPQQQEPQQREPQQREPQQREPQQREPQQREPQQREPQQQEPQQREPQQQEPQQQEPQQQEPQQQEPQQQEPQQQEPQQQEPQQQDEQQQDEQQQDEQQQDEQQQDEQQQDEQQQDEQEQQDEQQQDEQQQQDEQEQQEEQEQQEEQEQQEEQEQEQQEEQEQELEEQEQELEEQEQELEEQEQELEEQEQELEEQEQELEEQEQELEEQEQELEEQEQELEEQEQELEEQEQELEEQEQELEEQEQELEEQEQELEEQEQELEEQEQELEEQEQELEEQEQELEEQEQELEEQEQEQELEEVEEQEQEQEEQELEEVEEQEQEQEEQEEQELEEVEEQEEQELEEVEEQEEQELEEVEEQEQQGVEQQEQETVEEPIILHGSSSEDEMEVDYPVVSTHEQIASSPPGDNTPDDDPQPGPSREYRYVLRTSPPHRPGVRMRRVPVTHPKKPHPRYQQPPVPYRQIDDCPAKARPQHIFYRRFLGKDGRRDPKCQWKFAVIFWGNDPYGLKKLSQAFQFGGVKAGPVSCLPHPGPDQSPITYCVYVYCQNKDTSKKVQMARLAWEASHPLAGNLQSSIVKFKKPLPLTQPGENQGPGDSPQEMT

[13] = target: Keap1/Nrf2 (Homo sapiens, UniProt Q14145); assay: Keap1-Nrf2 protein-protein interaction inhibitors, dose response, biochemical, fluorescence polarization, cherry-picked samples (AID 588683)
[14] = target: SWI/SNF-related matrix-associated actin-dependent regulator of chromatin subfamily A member 2 (Homo sapiens, UniProt P51531); assay: Luminescence-based cell-based high throughput dose response assay to identify activators of the function of SWI/SNF related, matrix associated, actin dependent regulator of chromatin, subfamily a, member 2 (SMARCA2, BRM).; format: functional
[15] = target: T6, Sentrin-specific protease 1 (Homo sapiens, UniProt Q9P0U3); assay: potency of human SENP1 inhibitors, dose response, biochemical, kinetic FRET (AID 651697); format: functional; conditions: read-out: IC50_Mean
T6 sequence (Q9P0U3 whole entry): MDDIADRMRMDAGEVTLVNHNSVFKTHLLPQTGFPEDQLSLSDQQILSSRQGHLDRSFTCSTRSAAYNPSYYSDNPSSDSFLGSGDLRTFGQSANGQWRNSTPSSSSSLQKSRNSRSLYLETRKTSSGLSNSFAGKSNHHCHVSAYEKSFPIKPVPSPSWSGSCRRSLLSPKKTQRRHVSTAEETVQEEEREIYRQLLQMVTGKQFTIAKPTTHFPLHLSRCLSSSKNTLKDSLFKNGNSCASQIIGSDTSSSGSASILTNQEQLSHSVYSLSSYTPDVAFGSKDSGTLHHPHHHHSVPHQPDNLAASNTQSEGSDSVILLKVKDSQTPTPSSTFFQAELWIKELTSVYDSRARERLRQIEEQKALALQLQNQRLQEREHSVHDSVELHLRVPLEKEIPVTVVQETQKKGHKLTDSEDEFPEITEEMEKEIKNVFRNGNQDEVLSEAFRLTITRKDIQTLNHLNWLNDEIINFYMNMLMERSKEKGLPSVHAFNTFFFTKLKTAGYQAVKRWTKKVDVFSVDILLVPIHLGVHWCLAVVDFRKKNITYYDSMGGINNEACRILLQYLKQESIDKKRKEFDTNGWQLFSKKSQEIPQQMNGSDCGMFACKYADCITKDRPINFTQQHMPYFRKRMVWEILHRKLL

[16] = target: T7, DNA repair and recombination protein RAD54-like (Homo sapiens, UniProt Q92698); assay: inhibitors of human RAD54 branch migration, confirmation, biochemical, fluorescence, cherry-picked samples, dose series (AID 651657); format: functional
T7 sequence (Q92698 whole entry): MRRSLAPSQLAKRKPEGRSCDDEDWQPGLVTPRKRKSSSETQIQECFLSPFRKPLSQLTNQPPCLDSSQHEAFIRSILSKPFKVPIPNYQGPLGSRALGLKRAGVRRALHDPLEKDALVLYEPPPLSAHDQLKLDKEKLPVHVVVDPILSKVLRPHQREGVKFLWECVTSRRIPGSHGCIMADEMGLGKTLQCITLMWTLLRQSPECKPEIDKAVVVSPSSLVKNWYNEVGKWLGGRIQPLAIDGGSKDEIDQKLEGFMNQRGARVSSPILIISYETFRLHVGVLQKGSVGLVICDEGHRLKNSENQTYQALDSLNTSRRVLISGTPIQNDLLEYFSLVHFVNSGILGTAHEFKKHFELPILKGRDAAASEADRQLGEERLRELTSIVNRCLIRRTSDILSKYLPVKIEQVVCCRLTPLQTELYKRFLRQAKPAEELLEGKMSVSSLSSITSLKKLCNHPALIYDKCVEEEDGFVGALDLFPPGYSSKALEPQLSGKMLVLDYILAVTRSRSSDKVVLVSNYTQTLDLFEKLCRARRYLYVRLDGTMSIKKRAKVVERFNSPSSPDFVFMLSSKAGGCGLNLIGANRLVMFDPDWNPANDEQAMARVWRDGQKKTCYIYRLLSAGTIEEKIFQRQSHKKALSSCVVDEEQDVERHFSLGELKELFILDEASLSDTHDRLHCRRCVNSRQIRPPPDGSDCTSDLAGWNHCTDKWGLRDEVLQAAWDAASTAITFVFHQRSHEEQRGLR

[17] = DNA binding of candidate compounds, dose response, artefact control for RAD54 inhibitor project, biochemical, fluorescence polarization, cherry-pick (AID 651673); format: functional
[18] = target: T8, DNA repair protein RAD52 homolog (Homo sapiens, UniProt P43351); format: functional, biochemical
T8 sequence (P43351 whole entry): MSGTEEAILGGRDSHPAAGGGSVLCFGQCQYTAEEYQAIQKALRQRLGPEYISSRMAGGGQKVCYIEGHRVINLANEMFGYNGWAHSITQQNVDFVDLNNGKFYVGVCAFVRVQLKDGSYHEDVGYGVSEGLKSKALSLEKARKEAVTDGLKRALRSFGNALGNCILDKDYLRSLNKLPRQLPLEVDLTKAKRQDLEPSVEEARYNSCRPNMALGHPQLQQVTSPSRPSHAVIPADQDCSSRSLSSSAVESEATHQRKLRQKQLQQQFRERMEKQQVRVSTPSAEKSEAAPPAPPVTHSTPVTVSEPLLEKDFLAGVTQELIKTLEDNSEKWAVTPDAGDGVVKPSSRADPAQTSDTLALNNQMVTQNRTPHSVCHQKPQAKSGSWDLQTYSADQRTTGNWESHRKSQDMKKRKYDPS

[19] = tested on: Vero; assay: cells; format: functional, Chlorocebus sabaeus; conditions: Chlorocebus sabaeus, Vero
[20] = Counterscreen for activators of the function of SWI/SNF related, matrix associated, actin dependent regulator of chromatin, subfamily a, member 2 (SMARCA2, BRM): Luminescence-based cell-based high throughput dose response assay to identify non-selective compounds using the VP16 reporter assay.; format: functional
[21] = target: T6, Sentrin-specific protease 1; assay: Dose response confirmation of small molecule inhibitors of the catalytic domain of the SUMO protease, SENP1 in a FRET assay.; format: functional; conditions: read-out: IC50_Mean

T3 sequence (P63165 whole entry): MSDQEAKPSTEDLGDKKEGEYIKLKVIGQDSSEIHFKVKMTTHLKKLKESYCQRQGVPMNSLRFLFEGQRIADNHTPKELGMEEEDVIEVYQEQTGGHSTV
T1 sequence (P61956 whole entry): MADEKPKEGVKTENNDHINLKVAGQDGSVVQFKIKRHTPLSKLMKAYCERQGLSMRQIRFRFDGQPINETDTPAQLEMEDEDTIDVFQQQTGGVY
Chain of SWI/SNF-related matrix-associated actin-dependent regulator of chromatin subfamily A member 2 (P51531 whole entry): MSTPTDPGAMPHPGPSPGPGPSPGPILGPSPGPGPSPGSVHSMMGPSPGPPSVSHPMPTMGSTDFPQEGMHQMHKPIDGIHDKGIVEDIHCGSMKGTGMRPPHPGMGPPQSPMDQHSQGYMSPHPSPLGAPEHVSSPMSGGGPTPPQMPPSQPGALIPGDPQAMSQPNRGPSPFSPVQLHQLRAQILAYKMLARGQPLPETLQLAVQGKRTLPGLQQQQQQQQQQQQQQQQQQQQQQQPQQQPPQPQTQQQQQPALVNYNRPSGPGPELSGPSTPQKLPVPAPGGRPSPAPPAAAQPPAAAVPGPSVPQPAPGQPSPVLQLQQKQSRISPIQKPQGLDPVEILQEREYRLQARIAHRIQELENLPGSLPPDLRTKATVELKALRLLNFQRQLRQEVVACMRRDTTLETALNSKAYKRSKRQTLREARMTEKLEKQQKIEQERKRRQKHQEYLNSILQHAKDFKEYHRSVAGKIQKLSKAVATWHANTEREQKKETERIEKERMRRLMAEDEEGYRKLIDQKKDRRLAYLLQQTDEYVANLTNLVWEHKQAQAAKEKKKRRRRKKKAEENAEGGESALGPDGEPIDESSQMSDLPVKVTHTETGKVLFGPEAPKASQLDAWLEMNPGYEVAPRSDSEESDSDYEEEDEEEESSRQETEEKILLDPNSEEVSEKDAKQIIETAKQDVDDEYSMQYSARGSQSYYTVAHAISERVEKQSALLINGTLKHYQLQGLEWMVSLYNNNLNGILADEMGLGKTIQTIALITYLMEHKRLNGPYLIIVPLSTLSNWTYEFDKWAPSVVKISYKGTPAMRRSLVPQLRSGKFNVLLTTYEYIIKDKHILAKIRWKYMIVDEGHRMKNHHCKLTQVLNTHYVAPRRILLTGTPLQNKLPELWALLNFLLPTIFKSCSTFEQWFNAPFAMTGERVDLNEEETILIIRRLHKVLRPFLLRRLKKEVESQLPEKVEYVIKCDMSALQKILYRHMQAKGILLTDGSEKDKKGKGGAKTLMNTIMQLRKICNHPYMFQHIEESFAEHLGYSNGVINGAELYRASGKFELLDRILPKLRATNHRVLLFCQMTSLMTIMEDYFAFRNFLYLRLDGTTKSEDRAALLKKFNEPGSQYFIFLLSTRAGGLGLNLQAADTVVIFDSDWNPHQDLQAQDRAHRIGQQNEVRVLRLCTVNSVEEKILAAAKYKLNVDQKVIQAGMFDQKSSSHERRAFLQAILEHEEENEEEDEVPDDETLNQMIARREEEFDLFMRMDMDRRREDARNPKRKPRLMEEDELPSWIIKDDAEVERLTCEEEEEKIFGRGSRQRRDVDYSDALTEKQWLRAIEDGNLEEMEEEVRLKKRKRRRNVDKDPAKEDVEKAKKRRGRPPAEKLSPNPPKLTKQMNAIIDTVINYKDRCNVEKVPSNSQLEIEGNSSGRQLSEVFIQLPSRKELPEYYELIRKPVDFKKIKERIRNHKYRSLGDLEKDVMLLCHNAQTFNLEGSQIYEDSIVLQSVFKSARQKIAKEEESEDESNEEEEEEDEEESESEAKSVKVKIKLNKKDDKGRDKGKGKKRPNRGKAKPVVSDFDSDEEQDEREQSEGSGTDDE
Chain of Eukaryotic translation initiation factor 4E (P63073 whole entry): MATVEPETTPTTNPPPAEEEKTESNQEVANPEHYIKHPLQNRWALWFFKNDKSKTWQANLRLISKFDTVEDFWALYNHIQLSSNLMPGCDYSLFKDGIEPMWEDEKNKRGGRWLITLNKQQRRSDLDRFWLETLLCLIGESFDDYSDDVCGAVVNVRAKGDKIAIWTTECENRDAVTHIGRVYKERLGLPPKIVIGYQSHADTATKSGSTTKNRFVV
Chain of Keap1/Nrf2 (Q16236 whole entry): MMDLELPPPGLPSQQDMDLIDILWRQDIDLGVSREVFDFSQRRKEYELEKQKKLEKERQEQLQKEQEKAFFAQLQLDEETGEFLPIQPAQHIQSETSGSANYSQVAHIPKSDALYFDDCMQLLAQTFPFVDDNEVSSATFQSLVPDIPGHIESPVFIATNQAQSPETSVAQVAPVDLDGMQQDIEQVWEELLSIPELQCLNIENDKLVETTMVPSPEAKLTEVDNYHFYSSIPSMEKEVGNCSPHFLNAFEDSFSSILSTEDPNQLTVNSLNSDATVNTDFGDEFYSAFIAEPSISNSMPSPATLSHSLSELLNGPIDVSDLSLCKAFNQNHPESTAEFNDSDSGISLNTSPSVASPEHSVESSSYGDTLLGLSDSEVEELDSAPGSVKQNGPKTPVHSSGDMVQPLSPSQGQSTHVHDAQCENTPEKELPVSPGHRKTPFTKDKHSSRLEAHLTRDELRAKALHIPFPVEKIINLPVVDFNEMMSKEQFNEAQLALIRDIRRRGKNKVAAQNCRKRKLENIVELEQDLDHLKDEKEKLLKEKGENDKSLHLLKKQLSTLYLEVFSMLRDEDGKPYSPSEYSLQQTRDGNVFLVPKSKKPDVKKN
Chain of Keap1/Nrf2 (Q14145 whole entry): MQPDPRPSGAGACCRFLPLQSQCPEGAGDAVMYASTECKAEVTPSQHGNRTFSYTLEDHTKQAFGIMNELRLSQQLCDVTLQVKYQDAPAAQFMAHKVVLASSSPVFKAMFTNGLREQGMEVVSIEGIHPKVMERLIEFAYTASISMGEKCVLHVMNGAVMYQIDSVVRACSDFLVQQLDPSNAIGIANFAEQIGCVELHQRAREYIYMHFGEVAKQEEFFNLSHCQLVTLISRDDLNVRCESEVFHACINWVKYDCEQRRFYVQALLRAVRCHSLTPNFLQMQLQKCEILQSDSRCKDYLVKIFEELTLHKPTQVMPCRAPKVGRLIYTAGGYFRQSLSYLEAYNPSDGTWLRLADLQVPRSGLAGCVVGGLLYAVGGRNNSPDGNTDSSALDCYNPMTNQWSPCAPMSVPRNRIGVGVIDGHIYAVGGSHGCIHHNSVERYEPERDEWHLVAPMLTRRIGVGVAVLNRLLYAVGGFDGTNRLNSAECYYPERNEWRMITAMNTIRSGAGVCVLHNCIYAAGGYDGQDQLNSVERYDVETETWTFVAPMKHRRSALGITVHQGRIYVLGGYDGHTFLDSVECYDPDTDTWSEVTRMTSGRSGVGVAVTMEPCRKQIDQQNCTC

## Cc1cc2nc3c(=O)[nH]c(=O)[nH]c3nc2c([N+](=O)[O-])c1N
[1]
  AC50: 150 µM (active)
[2]
  IC50: 50 µM (inactive)
[3]
  IC50: 2.48 µM (active)
[4]
  IC50: > 66 µM (inactive)
[5]
  EC50: > 54.7 µM (inactive)
[6]
  IC50: 2.33 µM (active)
[7]
  EC50: 32.1 µM (inactive)
[8]
  EC50: > 54.7 µM (inactive)
[9]
  IC50: > 89.3 µM (inactive)
[10]
  AC50: 4.58 µM (active)
[11]
  IC50: 51.7 µM (inactive)
[12]
  AC50: 3.99 µM (active)
[13]
  AC50: 1.78 µM (active)

## CCN(CC)CCNc1ccc(CO)c2oc3cc(Cl)ccc3c(=O)c12
[14]
  EC50: > 91.2 µM (inactive)
[15]
  IC50: 19.8 µM (active)
[16]
  AC50: 10.2 µM (active)
[17]
  AC50: 63.1 µM (active)
[18]
  AC50: 12.5 µM (active)
[19]
  CC50: 16.7 µM (active)
[20]
  EC50: > 91.2 µM (inactive)
[21]
  IC50: 24 µM (inactive)
